From patent US5258377A, “2-spirocyclopropyl 4-acylcephems” (Taiho Pharmaceutical Co., Ltd., priority 1991, dated 1993)

These compounds were tested against T1, human leukocyte elastase (HLE) (Homo sapiens, UniProt P08246) (assay: in vitro anti-elastase activity against human leukocyte elastase (HLE)).
T1 sequence (P08246 30-247 limits assumed): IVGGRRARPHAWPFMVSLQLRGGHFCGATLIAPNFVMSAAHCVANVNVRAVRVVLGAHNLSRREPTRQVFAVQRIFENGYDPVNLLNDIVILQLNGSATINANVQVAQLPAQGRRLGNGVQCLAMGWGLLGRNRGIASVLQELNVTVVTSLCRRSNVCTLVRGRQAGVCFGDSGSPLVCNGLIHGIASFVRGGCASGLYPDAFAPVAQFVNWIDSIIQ
Format: biochemical
`CC1=C(C(=O)C(C)(C)C)N2C(=O)[C@H](Cl)[C@H]2S(=O)(=O)C12CC2(c1ccccc1)c1ccccc1` (stereo partly drawn) [Compd 5, 7α-Chloro-2-spiro(2',2'-diphenyl)cyclopropyl-3-methyl-3-cephem-4-t-butylcarbonyl 1,1-dioxide] was tested, and the IC50 was 6.3 nM. `CCCCC(=O)C1=C(C)C2(CC2(c2ccccc2)c2ccccc2)S(=O)(=O)[C@@H]2[C@@H](OC)C(=O)N12` (stereo partly drawn) [Compd 3, 7α-Methoxy-2-spiro(2',2'-diphenyl)cyclopropyl-3-methyl-3-cephem-4-butylcarbonyl 1,1-dioxide] gave an IC50 of 7.4 nM. Work on `CC1=C(C(=O)c2ccccc2)N2C(=O)[C@H](Cl)[C@H]2S(=O)(=O)C12CC2(c1ccccc1)c1ccccc1` (stereo partly drawn) [Compd 4, 7α-chloro-2-spiro (2',2'-diphenyl)cyclopropyl-3-methyl-3-cephem-4-phenylcarbonyl 1,1-dioxide] yielded an IC50 of 8.9 nM. `CCC(=O)C1=C(C)C2(CC2(c2ccccc2)c2ccccc2)S(=O)(=O)[C@@H]2[C@@H](OC)C(=O)N12` (stereo partly drawn) [Compd 2, 7α-Methoxy-2-spiro (2',2'-diphenyl)cyclopropyl-3-methyl-3-cephem-4-ethylcarbonyl 1,1-dioxide] was tested, and the IC50 was 10.3 nM. `CO[C@H]1C(=O)N2C(C(=O)C(C)(C)C)=C(C)C3(CC3(c3ccccc3)c3ccccc3)S(=O)(=O)[C@H]12` (stereo partly drawn) [Compd 6, 7α-Methoxy-2-spiro(2',2'-diphenyl)cyclopropyl-3-methyl-3-cephem-4-t-butylcarbonyl 1,1-dioxide] was tested, and the IC50 was 12 nM.
